From US8691761B2, “Somatostatin receptor 2 antagonists” (priority 2006, dated 2014)
“And” between values parts separate entries of the source, which are not always exact repeats. Equal entries are not always repeated. “Also recorded” adds a separate entry of the source. Where two headings read alike, the source gives them in different places. Bridge positions count the residues as written; N and C are the ends. Square brackets hold non-standard residues; d marks the D form. Peptide text beside a SMILES is read from it. * marks the point of attachment. ξ: configuration not given here. DOTA = O=C(O)CN1CCN(CC(=O)O)CCN(CC(=O)*)CCN(CC(=O)O)CC1; dPhe(4-NHCONH2) = NC(=O)Nc1ccc(C[C@@H](N)C(=O)O)cc1; Phe(4-NHCONH2) = NC(=O)Nc1ccc(C[C@H](N)C(=O)O)cc1; Phe(4-Cl) = N[C@@H](Cc1ccc(Cl)cc1)C(=O)O; ξDihydroorotoyl = O=C1CC(C(=O)*)NC(=O)N1; 2Nal = N[C@@H](Cc1ccc2ccccc2c1)C(=O)O; ξPhe(4-NH2) = Nc1ccc(CC(N)C(=O)O)cc1

What was measured:
HEK-sst2 tumors = settings: mouse, in vivo
Description: (§8) The following protocol was used to determine biodistribution
(§9) Confirmation that the transfected tumors were indeed expressing solely sst2 was obtained in resected tumor samples tested in vitro with somatostatin receptor autoradiography using subtype selective ligands.
(§10) The biodistribution of was studied at 4 h or 24 h after injection. The organs of interest were collected, blotted dry, weighed, their radioactivity measured and the percentage of injected activity per gram (% IA/g) calculated.

in vivo = settings: female, athymic nude, mouse, iv, total radioactivity, biodistribution
Description: as §8, §9, §10

hSSTR1 = target: T1, hSSTR1 (Homo sapiens, UniProt P30872); test: Receptor autoradiography, displacement of 125I-[Leu8,D-Trp22,Tyr25]-SRIF-28 from membrane pellet sections; assay type: binding; settings: for IC50: Table 3, mean ± SEM when N ≧ 3, read-out: sst1 binding affinity (IC50)
T1 construct: expressed in transfected cells; host or cells: CHO-K1 or CCL39 cells
T1 sequence (P30872 whole entry): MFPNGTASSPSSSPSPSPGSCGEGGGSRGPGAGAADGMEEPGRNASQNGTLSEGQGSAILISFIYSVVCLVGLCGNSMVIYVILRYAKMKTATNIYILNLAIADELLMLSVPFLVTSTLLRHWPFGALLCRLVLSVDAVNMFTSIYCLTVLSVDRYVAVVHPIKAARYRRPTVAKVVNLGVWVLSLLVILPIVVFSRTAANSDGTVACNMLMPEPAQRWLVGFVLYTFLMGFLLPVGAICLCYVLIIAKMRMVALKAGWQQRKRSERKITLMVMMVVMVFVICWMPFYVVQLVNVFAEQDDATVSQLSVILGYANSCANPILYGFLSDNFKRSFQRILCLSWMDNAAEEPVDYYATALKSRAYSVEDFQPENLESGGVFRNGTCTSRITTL
Description: (§1) Generally, recombinant cells expressing the receptor are washed and homogenized to prepare a crude protein homogenate in a suitable buffer. In a typical assay, an amount of protein from the cell homogenate is placed into a small volume of an appropriate assay buffer at an appropriate pH. Candidate substances, such as potential SRIF agonists and antagonists, are added to the admixture in convenient concentrations, and the interaction between the candidate substance and the receptor polypeptide is monitored.
(§2) In vitro Bioassay: The effects of the various somatostatin analogs were tested in vitro for their ability to bind to isolated cloned receptors expressed on CHO-K1 cells and CCL39 cells. The molecular cloning of the genes encoding multiple somatostatin receptor subtypes permitted the individual expression of these receptors in mammalian cells and the characterization of their respective pharmacological profiles.
(§3) CHO-K1 cells were grown in Ham's F-12 medium, and CCL39 cells were grown in Dulbecco's modified Eagle's medium/Ham's F-12(1:1) mix, supplemented with 10% fetal bovine serum, 100 U/ml penicillin and 100 μg/ml streptomycin, in humidified air containing 5% CO2 at 37° C. Cells were washed twice with and scraped into ice-cold 0.05 M Tris-HCl (pH 7.4), collected by centrifugation, and homogenized using a rotor/stator/system in the same buffer. After centrifugation at 120 g for 5 min at 4° C., the supernatant was collected and centrifuged again at 48,000 g for 30 min at 4° C. The resulting pellet was resuspended in ice-cold Tris buffer, transferred into a microfuge tube, and centrifuged at 20,000 g for 15 min at 4° C. After withdrawal of the supernatant, the membrane pellet was stored at −80° C.
(§4) Receptor autoradiography was performed on 20 μm thick cryostat sections of the membrane pellets, mounted on microscope slides, and then stored at −20° C. […] Increasing concentrations of the unlabeled peptide were used ranging from 0.1-1000 nM. […] IC50 values were calculated after quantification of the data using a computer-assisted image processing system as known in this art.
(§5) The numbers in parentheses indicate the number of times the particular binding test was carried out.
(§6) Receptor autoradiography. Cell membrane pellets were prepared as previously described, and stored at −80° C. Receptor autoradiography was performed on 20-μm thick cryostat (Microm HM 500, Walldorf, Germany) sections of the membrane pellets, mounted on microscope slides, and then stored at −20° C. […] After a brief dip in distilled water to remove excess salts, the sections were dried quickly and exposed for 1 week to Kodak BioMax MR film. IC50 values were calculated after quantification of the data using a computer-assisted image processing system as described previously. […] (Reubi, J. C. “In vitro identification of vasoactive intestinal peptide receptors in human tumors: Implications for tumor imaging.” J. Nucl. Med. 1995, 36, 1846-1853).
(§7) To investigate their ssts binding properties, the peptides were tested for their ability to bind to cryostat sections from membrane pellets of cells expressing the five human ssts (Table 3).

hSSTR2 = target: T2, hSSTR2 (Homo sapiens, UniProt P30874); test: as above; assay type: binding
T2 construct: expressed in transfected cells; host or cells: CHO-K1 or CCL39 cells
T2 sequence (P30874 whole entry): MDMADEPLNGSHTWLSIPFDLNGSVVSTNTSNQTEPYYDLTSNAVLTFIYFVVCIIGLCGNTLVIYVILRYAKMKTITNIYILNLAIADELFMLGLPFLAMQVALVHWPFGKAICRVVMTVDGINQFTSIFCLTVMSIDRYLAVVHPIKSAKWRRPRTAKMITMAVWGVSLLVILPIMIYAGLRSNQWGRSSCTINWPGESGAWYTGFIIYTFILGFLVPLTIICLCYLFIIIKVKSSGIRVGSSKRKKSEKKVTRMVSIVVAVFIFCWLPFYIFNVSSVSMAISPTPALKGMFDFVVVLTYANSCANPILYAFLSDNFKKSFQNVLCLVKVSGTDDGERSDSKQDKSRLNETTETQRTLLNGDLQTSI
Description: as §1, §2, §3, §4, §5, §6, §7

hSSTR3 = target: T3, hSSTR3 (Homo sapiens, UniProt P32745); test: as above; assay type: binding; settings: for IC50: Table 3, mean ± SEM when N ≧ 3, read-out: sst3 binding affinity (IC50)
T3 construct: expressed in transfected cells; host or cells: CHO-K1 or CCL39 cells
T3 sequence (P32745 whole entry): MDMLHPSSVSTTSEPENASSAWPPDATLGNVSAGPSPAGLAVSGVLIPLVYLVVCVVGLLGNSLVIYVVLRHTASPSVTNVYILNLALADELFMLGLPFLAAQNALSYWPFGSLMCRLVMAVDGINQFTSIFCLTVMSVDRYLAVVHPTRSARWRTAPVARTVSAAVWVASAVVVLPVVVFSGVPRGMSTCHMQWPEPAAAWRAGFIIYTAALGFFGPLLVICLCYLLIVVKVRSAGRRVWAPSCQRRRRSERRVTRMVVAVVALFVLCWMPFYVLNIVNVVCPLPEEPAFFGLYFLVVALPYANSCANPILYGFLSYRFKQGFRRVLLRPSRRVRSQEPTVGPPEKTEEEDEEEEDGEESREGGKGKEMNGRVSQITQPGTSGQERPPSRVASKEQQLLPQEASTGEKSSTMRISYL
Description: as §1, §2, §3, §4, §5, §6, §7

hSSTR4 = target: T4, hSSTR4 (Homo sapiens, UniProt P31391); test: as above; assay type: binding; settings: for IC50: Table 3, mean ± SEM when N ≧ 3, read-out: sst4 binding affinity (IC50)
T4 construct: expressed in transfected cells; host or cells: CHO-K1 or CCL39 cells
T4 sequence (P31391 whole entry): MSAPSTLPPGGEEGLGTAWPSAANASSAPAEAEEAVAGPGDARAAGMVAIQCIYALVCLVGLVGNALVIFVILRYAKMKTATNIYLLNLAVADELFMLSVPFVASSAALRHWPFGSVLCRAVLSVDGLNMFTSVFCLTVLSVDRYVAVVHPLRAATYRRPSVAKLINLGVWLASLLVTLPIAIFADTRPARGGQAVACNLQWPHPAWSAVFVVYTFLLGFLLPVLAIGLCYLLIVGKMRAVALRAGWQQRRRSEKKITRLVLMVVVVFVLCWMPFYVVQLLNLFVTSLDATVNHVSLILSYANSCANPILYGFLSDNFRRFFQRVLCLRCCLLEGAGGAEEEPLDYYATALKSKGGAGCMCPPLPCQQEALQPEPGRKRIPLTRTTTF
Description: as §1, §2, §3, §4, §5, §6, §7

hSSTR5 = target: T5, hSSTR5 (Homo sapiens, UniProt P35346); test: as above; assay type: binding; settings: for IC50: Table 3, mean ± SEM when N ≧ 3, read-out: sst5 binding affinity (IC50)
T5 construct: expressed in transfected cells; host or cells: CHO-K1 or CCL39 cells
T5 sequence (P35346 whole entry): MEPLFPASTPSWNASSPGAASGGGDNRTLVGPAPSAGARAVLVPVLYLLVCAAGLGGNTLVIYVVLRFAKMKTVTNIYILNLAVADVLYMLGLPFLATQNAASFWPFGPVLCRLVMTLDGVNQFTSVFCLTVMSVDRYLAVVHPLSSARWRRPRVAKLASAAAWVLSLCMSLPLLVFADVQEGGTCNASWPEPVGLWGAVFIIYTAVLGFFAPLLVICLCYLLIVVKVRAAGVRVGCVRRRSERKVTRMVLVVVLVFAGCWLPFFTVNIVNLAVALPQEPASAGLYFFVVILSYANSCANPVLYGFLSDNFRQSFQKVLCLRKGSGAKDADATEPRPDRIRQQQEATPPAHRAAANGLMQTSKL
Description: as §1, §2, §3, §4, §5, §6, §7

human sst2A receptor = target: T6, human sst2A receptor (Homo sapiens, UniProt P30874); test: Immunofluorescence-based sst2 internalization assay in HEK-sst2 cells; assay type: cell-based; settings: n ≧ 2
T6 construct: expressed in transfected cells; host or cells: HEK293 (HEK-sst2)
T6 sequence (P30874 whole entry): as the sequence (P30874 whole entry) above
Description: Immunofluorescence-based sst2 Internalization Assay. Immunofluorescence microscopy-based internalization assay for sst2 was performed with HEK-sst2 using the sst2-specific antibody R2-88 as described elsewhere herein. HEK-sst2 cells were treated either with vehicle alone, the sst2 agonist [Tyr^3]-octreotide at a concentration of 100 nM, [Tyr^3]-octreotide at a concentration of 100 nM in the presence of an excess of the SRIF analogues to be tested (100 times the concentration of [Tyr^3]-octreotide), or with the SRIF analogues to be tested alone at a concentration of 10 μM, and then processed for immunofluorescence microscopy as described previously.

sst2 = sst2 (Homo sapiens, UniProt P30874); test: Calcium release assay in HEK-sst2 cells (Fluo-4NW); assay type: cell-based; design: expressed in transfected cells; host or cells: HEK293 (HEK-sst2); settings: n ≧ 2
Chain of sst2 (P30874 whole entry): as above
Description: Calcium release assay. Intracellular calcium release was measured in HEK-sst2 using the Fluo-4NW Calcium Assay kit as described previously (Magrys, et al. “The role of anti-alpha-enolase autoantibodies in pathogenicity of autoimmune-mediated retinopathy.” J. Clin. Immunol. 2007, 27, 181-192; Michel et al. “The Nef protein of human immunodeficiency virus is a broad-spectrum modulator of chemokine receptor cell surface levels that acts independently of classical motifs for receptor endocytosis and Galphai signaling.” Mol. Biol. Cell. 2006, 17, 3578-3590). In brief, HEK-sst2 cells were seeded (25,000 cells per well) in poly-D-lysine (20 μg/mL) coated 96 well plates and cultured for 1 day at 37° C. and 5% CO2 in culture medium. At the day of the experiment, the cells were washed with assay buffer (1×HBSS, 20 mM HEPES) containing 2.5 mM probenecid, and then loaded with 100 μL/well Fluo-4NW dye in assay buffer containing 2.5 mM probenecid for 30 min at 37° C. and 5% CO2 and then for further 30 min at room temperature. To measure the intracellular calcium mobilization after stimulation with the SRIF analogues to be tested, the dye-loaded cells were transferred to a SpectraMax M2^e (Molecular Devices, Sunnyvale, Calif.). Intracellular calcium mobilization was recorded in a kinetic for 60 sec at room temperature monitoring fluorescence emission at 520 nm (with λex=485 nm) in the presence of the analogues at the concentrations indicated. Maximum fluorescence (Fmax) was measured after the addition of 25 μM ionomycin. Baseline (control) measurements were taken for dye-loaded, untreated cells. Data are shown as percentage of Fmax (% Fmax) as reported previously. (Magrys, et al. J. Clin. Immunol. 2007, 27, 181-192; Michel et al. Mol. Biol. Cell. 2006, 17, 3578-3590). All experiments were repeated at least three times in triplicate.

[1] = Table 3, mean ± SEM when N ≧ 3, read-out: sst2 binding affinity (IC50)

Compound | sst2-internalization tested in vitro in HEK-sst2 cells (function) (human sst2A receptor) | Calcium release tested in vitro in HEK-sst2 cells (function) (sst2) | IC50 (hSSTR1) [nM] | IC50 (hSSTR2; [1]) [nM] | IC50 (hSSTR3) [nM] | IC50 (hSSTR4) [nM] | IC50 (hSSTR5) [nM] | other results
C[C@@H](O)[C@@H]1NC(=O)[C@H](CCCCN)NC(=O)[C@@H](Cc2ccc(NC(N)=O)cc2)NC(=O)[C@H](Cc2ccc(O)cc2)NC(=O)[C@H](NC(=O)[C@H](Cc2ccc(Cl)cc2)NC(=O)CN2CCN(CC(=O)O)CCN(CC(=O)O)CCN(CC(=O)O)CC2)CSSC[C@@H](C(=O)N[C@@H](Cc2ccc3ccccc3c2)C(N)=O)NC1=O [^111In-labelled Peptide No. 28, metal not drawn] ({DOTA}-[Phe(4-Cl)][dC]Y[dPhe(4-NHCONH2)]KTC[2Nal]-NH2; disulfide 2-7) | – | – | – | – | – | – | – | biodistribution, kidney (HEK-sst2 tumors; female, athymic nude, iv, 4 h): 6.95 % IA/g; biodistribution, spleen (HEK-sst2 tumors; female, athymic nude, iv, 4 h): 0.36 % IA/g; tissue uptake at 4 h (in vivo; adrenal): 0.21 %ID/g; tissue uptake at 4 h (in vivo; blood): 0.19 %ID/g; tissue uptake at 4 h (in vivo; bone): 0.16 %ID/g; tissue uptake at 4 h (in vivo; heart): 0.12 %ID/g; tissue uptake at 4 h (in vivo; liver): 0.88 %ID/g; tissue uptake at 4 h (in vivo; muscle): 0.06 %ID/g; tissue uptake at 4 h (in vivo; pancreas): 2.41 %ID/g; tissue uptake at 4 h (in vivo; pituitary): 0.21 %ID/g; tissue uptake at 4 h (in vivo; sst2 tumor): 2.36 %ID/g
C[C@@H](O)[C@@H]1NC(=O)[C@H](CCCCN)NC(=O)[C@@H](Cc2ccc(NC(N)=O)cc2)NC(=O)[C@H](Cc2ccc(O)cc2)NC(=O)[C@H](NC(=O)[C@H](Cc2ccc(Cl)cc2)NC(=O)CN2CCN(CC(=O)O)CCN(CC(=O)O)CCN(CC(=O)O)CC2)CSSC[C@@H](C(=O)N[C@@H](Cc2ccc3ccccc3c2)C(N)=O)NC1=O [Peptide No. 28, DOTA-Cpa-c[DCys-Tyr-DAph(Cbm)-Lys-Thr-Cys]-2Nal-NH2] ({DOTA}-[Phe(4-Cl)][dC]Y[dPhe(4-NHCONH2)]KTC[2Nal]-NH2; disulfide 2-7) | Antagonist | Antagonist | – | – | – | – | – | effect on binding of the SRIF-28 radioligand to SSTR1 (hSSTR1; 100 nM): minimal effects; IC50 (hSSTR2; Table 1, inhibition of radioligand binding to cloned human receptor, read-out: IC50 hSSTR2): ~1.8 nM and 1.8 nM; effect on binding of the SRIF-28 radioligand to SSTR3 (hSSTR3; 100 nM): minimal effects; effect on binding of the SRIF-28 radioligand to SSTR4 (hSSTR4; 100 nM): minimal effects; effect on binding of the SRIF-28 radioligand to SSTR5 (hSSTR5; 100 nM): minimal effects
C[C@@H](O)[C@@H]1NC(=O)[C@H](CCCCN)NC(=O)[C@@H](Cc2ccc(NC(N)=O)cc2)NC(=O)C(Cc2ccc(NC(=O)C3CC(=O)NC(=O)N3)cc2)NC(=O)[C@H](NC(=O)[C@H](Cc2ccc(Cl)cc2)NC(=O)CN2CCN(CC(=O)O)CCN(CC(=O)O)CCN(CC(=O)O)CC2)CSSC[C@@H](C(=O)N[C@H](Cc2ccc(O)cc2)C(N)=O)NC1=O (stereo partly drawn) [Peptide No. 31, DOTA-Cpa-c[DCys-Aph(Hor)-DAph(Cbm)-Lys-Thr-Cys]-DTyr-NH2] ({DOTA}-[Phe(4-Cl)][dC][ξPhe(4-NH2)](ξDihydroorotoyl)[dPhe(4-NHCONH2)]KTC[dY]-NH2; disulfide 2-7) | antagonistic property; also recorded: Antagonist | Antagonist | – | – | – | – | – | sst2 binding affinity relative to SRIF-28 (hSSTR2): three to four-fold greater; tumor to kidney ratio (in words) (HEK-sst2 tumors): excellent tumor to kidney ratio
C[C@@H](O)[C@@H]1NC(=O)[C@H](CCCCN)NC(=O)[C@@H](Cc2c[nH]c3ccccc23)NC(=O)[C@H](Cc2ccc(NC(N)=O)cc2)NC(=O)[C@H](NC(=O)[C@H](Cc2ccc(Cl)cc2)NC(=O)CCNC(=O)CN2CCN(CC(=O)O)CCN(CC(=O)O)CCN(CC(=O)O)CC2)CSSC[C@@H](C(=O)N[C@@H](Cc2ccc3ccccc3c2)C(N)=O)NC1=O [compound 15, DOTA-βAla-Cpa-c[DCys-Aph(Cbm)-DTrp-Lys-Thr-Cys]-2Nal-NH2] | Antagonist | Antagonist | > 1000 | 46 ± 13 | 124 ± 53 | > 1000 | > 1000 | –
C[C@@H](O)[C@@H]1NC(=O)[C@H](CCCCN)NC(=O)[C@@H](Cc2c[nH]c3ccccc23)NC(=O)[C@H](Cc2ccc(NC(N)=O)cc2)NC(=O)[C@H](NC(=O)[C@@H](N)Cc2ccc(Cl)cc2)CSSC[C@@H](C(N)=O)NC1=O [compound 17, H2N-Cpa-c[DCys-Aph(Cbm)-DTrp-Lys-Thr-Cys]-NH2] (H-[Phe(4-Cl)][dC][Phe(4-NHCONH2)][dW]KTC-NH2; disulfide 2-7) | Antagonist | Antagonist | > 1000 | 5.9 ± 1.8 | 138 ± 52 | > 1000 | 461 ± 106 | –
